The record followed here is ChEMBL document CHEMBL3507680, “University of Dundee, Gates Library screen for HepG2 cell viability”.

The nature of this series: Human HepG2 cell viability assay in 384 well format. Details: dose 125 nL, time 70.5 hour; concentration not given beside the values. The series is classed as toxicity, cell-based. The settings on record: HepG2 cells, read-out: Inhibition.
`Cc1cc(C)c(CNC(=O)NCc2nnc3n2CCCC3)c(=O)[nH]1`: the cytotoxicity at 70.5 h was -13.4%. Next, `Cc1cc(C)c2c(OCC(=O)NC(C)C)nn(C)c2n1`: 14.7%; `COC(=O)c1cccc(C(=O)N2CCN(c3cccc(C)c3C)CC2)n1`: -14.1%; `NC(=O)N1CCCN(C(=O)Nc2cc(-n3cccc3)ccc2F)CC1`: -6.12%. Regarding `Cc1nc(-c2ccc(Cl)s2)sc1C(=O)NCCS(N)(=O)=O`, the cytotoxicity at 70.5 h is -13.2%.

In the case of `N#Cc1cccc(S(=O)(=O)NC(=O)COCC(F)(F)F)c1`, the cytotoxicity at 70.5 h was determined as 0.976%. With `Cn1cnc2cc(C(=O)NS(=O)(=O)c3ccc(F)cc3)ccc21`, the cytotoxicity at 70.5 h was -5.36%. With `Cc1noc(C(C)Nc2ccc3oc(C(C)C)nc3c2)n1` (configuration not stated), the cytotoxicity at 70.5 h turned out to be 1.64%. The result for `Cc1cnc(CN(C)C2CCN(CCc3cnn(C)c3)C2)o1` (configuration not stated) reads -0.678%; that for `Cc1cnc(N2CCN3C[C@H](OCc4cccc(C)n4)C[C@H]3C2)nc1`, 0.481%. Next, `COc1cc(C)ccc1OCc1nc(C(=O)N2CCC(C)CC2)co1`: -2.55%; `Cc1ccccc1C1(C(=O)NCCN2CCC(C)CC2)CCOCC1`: 17.6%; `CC(C)N1CCCC(N2CCOC3(CCCC3)C2)C1=O` (configuration not stated): -7.02%. Regarding `CCCS(=O)(=O)NCc1ncc(C)c(OC)c1C`, the cytotoxicity at 70.5 h is 9.44%. Take `CCn1cc(CN2CCC(c3nnc(CN(C)C)n3CC)CC2)cn1`: the cytotoxicity at 70.5 h stood at 10.9%. Take `CC(C(=O)N1CCCCC1)N1CCN(c2ncc(Cl)cn2)CC1` (configuration not stated): the cytotoxicity at 70.5 h is -0.389%. The result for `Cc1cc(O)nc(C2CCCNC2)n1` (configuration not stated) reads -3.99%. For the compound `Oc1cccc(CN2CCN(c3nccc(CCC(F)(F)F)n3)CC2)c1`, the cytotoxicity at 70.5 h is -3.66%.

For `Cc1ccc(-c2noc([C@@H]3C[C@H](NC(=O)CC(C)(C)C)CN3C)n2)cc1`, the cytotoxicity at 70.5 h is -2%. On to `CN(C)CCN(Cc1ccc(Cl)cc1)C(=O)c1ccn(C)c(=O)c1`, for which the cytotoxicity at 70.5 h was -5.83%. On to `Cn1cc(-c2csc(N3CCSCC3)n2)cn1`, for which the cytotoxicity at 70.5 h was -3.33%. `COc1cccc(OCC(=O)N(C)c2cccnc2)c1`: the cytotoxicity at 70.5 h amounted to 24%.

`O=C(c1cccc(S(=O)(=O)NC[C@@H]2C[C@H](F)CN2)c1)N1CCCCC1`: the cytotoxicity at 70.5 h was found to be 4.39%. The result for `O=c1ncn(-c2ccc(F)cc2)c2ncccc12` reads -6.86%. The result for `Nc1nc2c(c(NCc3nccs3)n1)CCN(CC1CCCC1)CC2` reads -17.1%; that for `Cc1cnn(CC2CCCN2Cc2nnc(C(C)C)o2)c1` (configuration not stated), 23%. On to `Cn1cnc2c1CCN(CCS(=O)(=O)c1ccc(Cl)cc1)C2`, for which the cytotoxicity at 70.5 h is -5.54%. For the compound `CC(C)c1nn(C)c(Cl)c1CNCCn1cccn1`, the cytotoxicity at 70.5 h came out at 8.25%. As for `Cc1nc(C)c(COc2ccc(S(=O)(=O)N(C)C)cc2)s1`, the cytotoxicity at 70.5 h was -22.5%. In the case of `CCCNC(=O)c1cc(Br)c2c(c1)OCCO2`, the cytotoxicity at 70.5 h is -9.42%.

`CCOCCN1CCN(c2ccc(CN(C)C)cn2)CC1`: the cytotoxicity at 70.5 h was -5.47%. As for `O=C1CSC(c2ccsc2)c2sccc2N1` (configuration not stated), the cytotoxicity at 70.5 h is -18.3%. Next, `CC(C)Oc1ccc(Cl)c(C(=O)N2CCN(CCO)CC2)n1`: -12.1%; `CC(C)(C)NC(=O)c1ccn(COc2c(Cl)cccc2Cl)n1`: -0.674%; `Cc1cnn(CC(C)NCc2ccc(-n3cccn3)cc2)c1` (configuration not stated): 30.2%. Turning to `O=C(Nc1cnccn1)[C@H]1CC[C@@H]2[C@@H](CCN2Cc2ccoc2)O1`, the cytotoxicity at 70.5 h amounted to 25.7%. `CS(=O)(=O)N1CC2(CCN(CC3CCCCC3)C2)Cc2ccccc21` (configuration not stated): the cytotoxicity at 70.5 h is -3.19%. Next, `CN(CCc1ccccn1)C(=O)CCC1CCCN(c2ccncc2)C1` (configuration not stated): 0%; `COCCOCC(=O)NC(C#N)c1ccccc1C` (configuration not stated): -7.18%; `CC(C)Cc1nc(CO)n(-c2ccc3c(c2)OCCO3)n1`: 1.83%.

On to `Cc1cnn(CC(C)NCc2ccc(C#N)cc2F)c1` (configuration not stated), for which the cytotoxicity at 70.5 h is -4.59%.

For the compound `Cc1nn(C)c(C)c1CC(=O)NCc1cccnc1N1CCOCC1`, the cytotoxicity at 70.5 h is -5.49%. Next, `CC(C)c1ccc(C(N)c2cccs2)cc1` (configuration not stated): -5.3%; `c1csc(-c2cc(CN3CCN(c4cnccn4)CC3)no2)c1`: -14.8%; `Cc1cccc(CNc2nnc(C(C)C)o2)c1`: 0.308%. The result for `CC(C)c1nnc2n1CCN(CCCS(=O)(=O)c1ccccc1)C2` reads -13.8%. On to `c1cn(CCn2cnnc2)c(-c2cc3n(n2)CCCNC3)n1`, for which the cytotoxicity at 70.5 h is -5.64%. With `CSCC(C)(O)CNS(=O)(=O)Cc1ccc(F)cc1` (configuration not stated), the cytotoxicity at 70.5 h is -11.7%. As to `O=C(c1cccc(-c2ccc(F)cc2)c1)N1CCC2(CC1)[C@H](O)C[C@@H]2O`, the cytotoxicity at 70.5 h is -9.07%.

With `Cc1nnc(CN2CCCC2c2c(C)nn(C)c2Cl)o1` (configuration not stated), the cytotoxicity at 70.5 h was -11.6%.

With `O=C(NC1(C(=O)NCC2CC2)CCCC1)C1Cc2cc(F)ccc2O1` (configuration not stated), the cytotoxicity at 70.5 h was -4.27%. On to `CCn1cc(NC(=O)C2CCN(CC(=O)NCC(C)C)CC2)cn1`, for which the cytotoxicity at 70.5 h is -5.15%.

With `O=C(c1cc(Cl)c[nH]c1=O)N1C[C@@H]2CC[C@H](C1)N(Cc1ccccc1)C2`, the cytotoxicity at 70.5 h is 12.7%. Consider `Cc1ncsc1-c1ccn(CC(=O)Nc2cnn(C)n2)n1`, for which the cytotoxicity at 70.5 h amounted to 45.6%. Next, `CCc1nc(N)nc(N2CCCC3(CN(C)C(=O)O3)C2)c1C` (configuration not stated): -10.4%. With `Cc1cccc(N2CC[C@@H]3[C@@H](CO[C@H]3CNS(C)(=O)=O)C2)n1`, the cytotoxicity at 70.5 h came to 10.6%.

As for `CS(=O)(=O)CCNC(=O)N(Cc1ccoc1)C1CCCCC1`, the cytotoxicity at 70.5 h is -7.65%. Next, `CC(C)n1cc(N2CC(C(=O)N3CCc4ccccc4C3)CC2=O)cn1` (configuration not stated): 26.3%; `O=C(c1ccccc1)N1C[C@@H]2CCCO[C@@H]2[C@H](N2CCOCC2)C1`: 1.03%; `CCN(Cc1ccc2c(c1)OCCO2)C(=O)NC(C)Cn1cccn1` (configuration not stated): 0.788%. `CNC(=O)c1cc2c(nc1NCC(C)C)CCN(S(=O)(=O)C1CC1)CC2`: the cytotoxicity at 70.5 h was -6.3%. As to `CC1(C)[C@H]2CC=C(CN3CCCn4nc(C(=O)O)cc4C3)[C@@H]1C2`, the cytotoxicity at 70.5 h was -19.9%.

For the compound `COc1cccc(N2CCN(C(C(=O)O)c3ccc(OC)nc3)CC2)c1` (configuration not stated), the cytotoxicity at 70.5 h is -9.28%. The result for `CN(C)[C@@H]1COC[C@@H]2CN(Cc3ccc4c(c3)OCO4)C[C@@H]21` reads -3.34%; that for `CN(C)CC1(O)CCN(C(=O)Cc2ccc3ccccc3c2)C1` (configuration not stated), -1.7%; that for `Cn1cnnc1C1CCCN(C(=O)NCc2cc[nH]n2)C1` (configuration not stated), 18.7%. With `Cc1ccc(S(=O)(=O)N2C[C@H]3C[C@H](NC(=O)c4cscn4)[C@H]3C2)cc1`, the cytotoxicity at 70.5 h was 9.07%. Next, `CCC[C@H]1CN(Cc2cncn2C)C[C@@H]1NC(=O)C1(COC)CCC1`: -9.83%; `O=C(NCC1(CO)CC1)c1cccc2ccccc12`: 2.2%; `COc1cc(C(=O)N(C)Cc2nccn2CC(F)(F)F)ccc1C`: 15.7%. On to `Cc1cc(C)nc(N2CCC(c3c(C(N)=O)sc4ccccc34)C2)n1` (configuration not stated), for which the cytotoxicity at 70.5 h is -3.24%. In the case of `CC(C(=O)N1CCc2ccccc21)N1CCc2cncnc2C1` (configuration not stated), the cytotoxicity at 70.5 h is -3.31%. Next, `CCO[C@H]1CC[C@H]2[C@@H]1OCCN2C(=O)COc1ccccc1`: 27.1%; `COc1cc(C(=O)NCCCc2ccccc2)on1`: -1.09%; `Cc1ccc(C)c(CN2CCCn3nc(CNS(C)(=O)=O)cc3C2)c1`: 15.4%. The result for `CCn1cnnc1C1CCN(C(=O)c2ccnc(N(C)C)c2)CC1` reads -8.14%. Turning to `CC(=O)N1CC(=O)N(c2ccccc2)CC12CCN(Cc1ccoc1)C2` (configuration not stated), the cytotoxicity at 70.5 h is -14.4%.

Consider `C1CC(CN2C[C@H]3CC[C@@H]2CN(Cc2nnc(C4CC4)o2)C3)C1`, for which the cytotoxicity at 70.5 h was -16.7%. Take `CN(C)C(=O)CC1CC2(CCN(C(=O)N(C)C)CC2)Oc2ccccc21` (configuration not stated): the cytotoxicity at 70.5 h was -11.4%. The result for `CS(=O)(=O)NC[C@]12COC[C@H]1CN(C(=O)c1ccccc1)C2` reads -3.75%.

In the case of `Cn1ccnc1CNC[C@H]1Cn2cc(-c3ccccc3)nc2CO1`, the cytotoxicity at 70.5 h was -8.01%. Turning to `Cn1c(SCC(=O)NC(C)(C#N)C2CC2)nc2ccccc21` (configuration not stated), the cytotoxicity at 70.5 h was found to be 0.675%. In the case of `Cc1nc(CN2C(=O)C[C@@H]3[C@@H]2CCN3CC2CCOCC2)cs1`, the cytotoxicity at 70.5 h turned out to be 23.6%.

Turning to `O=C1OCCC1N1CCN(c2cnccn2)CC1` (configuration not stated), the cytotoxicity at 70.5 h is -8.4%.

`Cc1c(C(=O)N2CCN(c3ncccn3)CC2)n(C)c2ccc(Cl)cc12`: the cytotoxicity at 70.5 h was -7.85%. The result for `COCCN1CCO[C@@H]2CN(Cc3ccccn3)C[C@@H]2C1` reads 2.26%; that for `CC[C@H](Cn1ncc2ccccc2c1=O)NC(=O)c1ccccn1`, -7.7%; that for `Cc1cc(C)c(CNC(=O)NCc2ccc3c(c2)CCC3)c(=O)[nH]1`, -10.5%. Turning to `CC(SCC(=O)NCCC#N)c1ccc(Cl)cc1` (configuration not stated), the cytotoxicity at 70.5 h is -18.4%. The result for `Cc1cc(NS(=O)(=O)c2ccccc2F)ccc1-n1cccc1C(=O)O` reads -1.31%; that for `CN(CCCOc1ccccc1)C(=O)c1csc(-c2nnc[nH]2)n1`, -5.84%.

As to `O=C1CN(Cc2nnc(-c3ccc(Br)o3)o2)CCN1`, the cytotoxicity at 70.5 h is -7.06%. `O=C(Cn1cccnc1=O)NC(Cc1ccsc1)c1nccs1` (configuration not stated): the cytotoxicity at 70.5 h was 17.6%.

Take `Cc1ccc(O)c(C(=O)N2C[C@@H](C(=O)O)[C@H](c3ccccc3)C2)c1`: the cytotoxicity at 70.5 h worked out at 0.313%. For the compound `CCS(=O)(=O)CC(=O)NC1CCc2nccn2C1` (configuration not stated), the cytotoxicity at 70.5 h is -4.08%. Next, `O=C(O)c1c(-c2cncnc2)ncc2c1CCN(CC1CCOC1)C2` (configuration not stated): -4.73%; `Cc1noc(C)c1C(=O)N1CCCN(C)c2ccc(Cl)cc21`: -3.33%.
